Assays:
A375 xenografts = A375 xenografts in nude mice, tumor growth inhibition; assay type: in vivo; conditions: A-375 xenograft (FIGS. 21A-B)
Protocol: (§1) Studies were performed to assess the effects of in vivo SMSM treatment on glioblastoma, breast, pancreatic, prostate, melanoma, lymphoma and Ewing sarcoma tumors. Studies were also performed to assess the effects of in vivo SMSM treatment on mRNA levels. Immunocompromised nude mice with pre-existing glioblastoma, breast, pancreatic, prostate, melanoma, lymphoma and Ewing sarcoma xenografts were treated with vehicle or SMSMs. Tumor tissues from subcutaneous xenografts were broken into a powder using a BioPulverizer (Biospec Products, Inc.). After SMSM treatment, mRNA was isolated from the xenografts and was analyzed by qRT-PCR.
(§2) Tumor size was measured 2 times per week in two dimensions using a caliper. Studies were terminated when the tumor size in the vehicle treated group reached 2,000 mm^3. Each mouse was bled at 2 hrs after the last dose and at least 50 μl of plasma was collected from each mouse. All of the collected plasma samples and retainer dosing solutions for each dose level were used for bioanalytical measurements. All tumors were also collected and weighed. One necrosis-free tumor fragment of approximately 50 mg was taken from each tumor and flash-frozen for RNA isolation. The remaining tumor was flash frozen for PK analysis.
(§3) The effects of in vivo SMSM treatments on pre-existing subcutaneous glioblastoma, breast, pancreatic, prostate, melanoma, lymphoma and Ewing sarcoma xenografts were assessed. For these in vivo experiments, 1×10^6Raji, A375, A673, MDA-MB-231, BxPC-3, PC-3 or U87 (cells re-suspended in 100 μl PBS were subcutaneously injected into the flanks of nude mice. When the tumor reached approximately 100 mm^3 (volume=(¾)(π)(length/2)(width/2)^2), the treatments indicated in the tables below were initiated.

A673 xenografts = A673 xenografts in nude mice, tumor growth inhibition; assay type: in vivo; conditions: A673 xenograft (FIGS. 20A-B)
Protocol: Dose range and time course studies comparing anti-neoplastic effects of SMSM−167 and SMSM−151 against vehicle were conducted.
Female NCrNu mice were used. Age range of enrolment was 7-10 weeks. A total of 75 animals were for the studies.
The A673 tumor cell line was maintained in vitro as a monolayer culture. […] The cells growing in an exponential growth phase were harvested and counted for tumor inoculation.
Each mouse were inoculated into a right flank with the single cell suspension of 95% viable tumor cells (5×10^6 cells/mouse) in serum-free RPMI 1640 Media for tumor development. Treatments were administered when mean tumor size reached approximately 75 mm^3.
Before commencement of treatment, all animals were weighed and assigned to treatment groups using a randomization procedure. Mice were randomized into groups based upon their tumor sizes to ensure that each group had approximately the same mean tumor size and range of tumor size.
After inoculation, the animals were checked daily for morbidity and mortality. At the time of routine monitoring, the animals were checked for any effects of tumor growth on normal behavior such as mobility, food and water consumption, body weight gain/loss, eye/hair matting and any other abnormal effects. Deaths and observed clinical signs were recorded.
Body weight were measured prior to tumor inoculation and prior to the treatment administration and then daily. Tumor size were measured 2-3 times per week in two dimensions using a caliper, and the volume were expressed in mm^3 using the formula: V=0.5×a×b^2 where a and b are the long and short diameters of the tumor, respectively.
as §2, with “Studies” for “Tumor size was measured 2 times per week in two dimensions using a caliper. Studies”, “plasma were” for “plasma was”
as §1, §2
as §3, with “initiated. […]” for “initiated.”

A673 cells = assay: Cell viability and proliferation, A673 cells (crystal violet); assay type: cell-based; conditions: cell proliferation IC50 in NHDF cells over A673 cells, 72 h
Protocol: Small molecule splicing modulators were tested in a dose-response assay using A673 cells and NHDF cells.
A673 cells or NHDF cells were first plated in 96-well plastic tissue culture plates (10,000 cells per well). The cells were treated with vehicle alone (DMSO), or increasing concentrations of SMSM compounds for 72 h. Following treatment, cell proliferation was determined using a crystal violet assay. The relative cell proliferation at each concentration was determined.

[1] = Maximum tolerable dose study (survival, body weight); assay type: in vivo; conditions: mice
Protocol: Survival of mice after administration of SMSMs after 10 or 11 days was assessed.
Tolerance of the drug treatments was determined by measuring the weight of the mice during the period of drug administration. Body weight was measured prior to tumor inoculation and prior to the treatment administration and then daily. The changes in the final weight of the mice for the SMSM treatments were determined.

For `CN(c1ccc(-c2ccc(-c3cn[nH]c3)cc2O)nn1)[C@H]1C[C@]2(C)CC[C@](C)(C1)N2` [compound 151, 2-(6-(((1R,3s,5S)-1,5-dimethyl-8-azabicyclo[3.2.1]octan-3-yl)(methyl)ami-no)pyridazin-3-yl)-5-(1H-pyrazol-4-yl)phenol], which “Tumor Growth Inhibition (TGI) (%)” value (A375 xenografts; 3 mg/kg i.p. QD *21 days, D4) is on record?
Its value is 15.21%.

And the “Tumor Growth Inhibition (TGI) (%)” value (A375 xenografts; 3 mg/kg i.p. QD *21 days, D7)?
Its value is 18.86%.

And the “Tumor Growth Inhibition (TGI) (%)” value (A375 xenografts; 3 mg/kg i.p. QD *21 days, D11)?
The value was 27.48%.

What about the “Tumor Growth Inhibition (TGI) (%)” value (A375 xenografts; 3 mg/kg i.p. QD *21 days, D14) of the same molecule?
The value was 41.30%.

And the “Tumor Growth Inhibition (TGI) (%)” value (A375 xenografts; 3 mg/kg i.p. QD *21 days, D18)?
Its value is 62.06%.

And the “Tumor Growth Inhibition (TGI) (%)” value (A375 xenografts; 3 mg/kg i.p. QD *21 days, D21)?
Its value is 55.77%.

And the “Tumor Growth Inhibition (TGI) (%)” value (A375 xenografts; 10 mg/kg p.o. BID *21 days, D4)?
Its value is 22.49%.

What about the “Tumor Growth Inhibition (TGI) (%)” value (A375 xenografts; 10 mg/kg p.o. BID *21 days, D7) of the same molecule?
The value was 28.98%.

What about the “Tumor Growth Inhibition (TGI) (%)” value (A375 xenografts; 10 mg/kg p.o. BID *21 days, D11) of the same molecule?
The value was 48.28%.

What about the “Tumor Growth Inhibition (TGI) (%)” value (A375 xenografts; 10 mg/kg p.o. BID *21 days, D14) of the same molecule?
The value was 49.06%.

And the “Tumor Growth Inhibition (TGI) (%)” value (A375 xenografts; 10 mg/kg p.o. BID *21 days, D18)?
Its value is 58.41%.

What about the “Tumor Growth Inhibition (TGI) (%)” value (A375 xenografts; 10 mg/kg p.o. BID *21 days, D21) of the same molecule?
The value was 50.32%.

And the “Tumor Growth Inhibition (TGI) (%)” value (A375 xenografts; SMSM-151 group 1.5 mg/kg i.p. BID *21 days, D4)?
Its value is 21.81%.

And the “Tumor Growth Inhibition (TGI) (%)” value (A375 xenografts; SMSM-151 group 1.5 mg/kg i.p. BID *21 days, D7)?
The value was 13.08%.

What about the “Tumor Growth Inhibition (TGI) (%)” value (A375 xenografts; SMSM-151 group 1.5 mg/kg i.p. BID *21 days, D11) of the same molecule?
The value was 24.17%.

And the “Tumor Growth Inhibition (TGI) (%)” value (A375 xenografts; SMSM-151 group 1.5 mg/kg i.p. BID *21 days, D14)?
The value was 34.70%.

And the “Tumor Growth Inhibition (TGI) (%)” value (A375 xenografts; SMSM-151 group 1.5 mg/kg i.p. BID *21 days, D18)?
The value was 39.27%.

And the “Tumor Growth Inhibition (TGI) (%)” value (A375 xenografts; SMSM-151 group 1.5 mg/kg i.p. BID *21 days, D21)?
The value was 36.89%.

And the “Tumor Growth Inhibition (TGI) (%)” value (A673 xenografts; 10 mg/kg BID p.o., Day 3)?
The value was 28.03%.

What about the “Tumor Growth Inhibition (TGI) (%)” value (A673 xenografts; 10 mg/kg BID p.o., Day 6) of the same molecule?
Its value is 34.29%.

And the “Tumor Growth Inhibition (TGI) (%)” value (A673 xenografts; 10 mg/kg BID p.o., Day 10)?
The value was 22.09%.

And the “Tumor Growth Inhibition (TGI) (%)” value (A673 xenografts; 10 mg/kg BID p.o., Day 13)?
The value was 30.12%.

And the “Tumor Growth Inhibition (TGI) (%)” value (A673 xenografts; 20 mg/kg BID p.o., Day 3)?
Its value is 37.61%.

What about the “Tumor Growth Inhibition (TGI) (%)” value (A673 xenografts; 20 mg/kg BID p.o., Day 6) of the same molecule?
The value was 45.97%.

What about the “Tumor Growth Inhibition (TGI) (%)” value (A673 xenografts; 20 mg/kg BID p.o., Day 10) of the same molecule?
Its value is 55.24%.

What about the “Tumor Growth Inhibition (TGI) (%)” value (A673 xenografts; 20 mg/kg BID p.o., Day 13) of the same molecule?
The value was 71.29%.

And the “Tumor Growth Inhibition (TGI) (%)” value (A673 xenografts; 30 mg/kg QD p.o., Day 3)?
The value was 23.90%.

And the “Tumor Growth Inhibition (TGI) (%)” value (A673 xenografts; 30 mg/kg QD p.o., Day 6)?
Its value is 34.28%.

And the “Tumor Growth Inhibition (TGI) (%)” value (A673 xenografts; 30 mg/kg QD p.o., Day 10)?
The value was 17.11%.

What about the “Tumor Growth Inhibition (TGI) (%)” value (A673 xenografts; 30 mg/kg QD p.o., Day 13) of the same molecule?
Its value is 23.52%.

What about the “Ratio NHDF/A673 IC50” value (A673 cells) of the same molecule?
Its value is >350.

And the Outcome ([1]; IP, 1 mg/kg, QDx11)?
The Outcome was “All survived”.

And the Outcome ([1]; PO, 10 mg/kg, BIDx11)?
Its Outcome is “All survived”.

And the Outcome ([1]; PO, 10 mg/kg, QDx11)?
The Outcome was “All survived”.

Source: patent publication US11326165B1, “Methods and compositions for modulating splicing” (SKYHAWK THERAPEUTICS, INC., priority 2017, dated 2022)
